In US6596320B1, “Method for treating cancer having greater efficacy and reduced adverse effects” (BioNumerik Pharmaceuticals, Inc., priority 2002, dated 2003):

Legend:
MCF7/WT (breast cancer) [1] = assay: Sequential treatment of MCF7/WT with Taxol followed by CDDP, % cell survival; type: cell-based, human; details: 2 hour
Description: (§1) In vitro experiments were conducted to determine the efficacy of platinum/taxane combination therapy and to determine if the order of administration of the agents affected the cytotoxicity. The agents used were cisplatin (CDDP) and paclitaxel (Taxol®®), and the cell line used was MCF7/WT (breast cancer). The results of the experiments are shown below in Tables 1 and 2.

MCF7/WT (breast cancer) [2] = assay: Sequential treatment of MCF7/WT with CDDP followed by Taxol, % cell survival; type: cell-based, human; details: 2 hour
Description: as §1

[3] = cited from earlier work

## [NH2][Pt]([NH2])([Cl])[Cl] [CDDP, cisplatin]
MCF7/WT (breast cancer) [1]; CDDP 4.25 uM alone
  % cell survival, Average: 73%
MCF7/WT (breast cancer) [1]; CDDP 8.5 uM alone
  % cell survival, Average: 52%
MCF7/WT (breast cancer) [2]; CDDP 4.25 uM alone
  % cell survival, Average: 71%
MCF7/WT (breast cancer) [2]; CDDP 8.5 uM alone
  % cell survival, Average: 50%

## O=S(=O)([O-])CCSSCCS(=O)(=O)[O-].[Na+].[Na+] [Dimesna, Disodium 2,2′-dithiobis ethane sulfonate]
[3]; co-administration
  interference with cytotoxic effects of co-administered antineoplastic agent(s): not to interfere with the cytotoxic effects
[3]; human patients
  effect on unwanted toxic effects of single agent cisplatin and single agent paclitaxel: reduce the unwanted toxic effects

## CC(=O)O[C@H]1C(=O)[C@@]2(C)[C@H]([C@H](OC(=O)c3ccccc3)[C@]3(O)C[C@H](OC(=O)[C@H](O)[C@@H](NC(=O)c4ccccc4)c4ccccc4)C(C)=C1C3(C)C)[C@]1(OC(C)=O)CO[C@@H]1C[C@@H]2O [Taxol ®, paclitaxel]
MCF7/WT (breast cancer) [1]; Taxol 27 nM alone
  % cell survival, Average: 88%
MCF7/WT (breast cancer) [1]; Taxol 45 nM alone
  % cell survival, Average: 82%
MCF7/WT (breast cancer) [2]; Taxol 27 nM alone
  % cell survival, Average: 71%
MCF7/WT (breast cancer) [2]; Taxol 45 nM alone
  % cell survival, Average: 45%
